Results from ChEMBL document CHEMBL4325927, “Synthesis, Anti-HBV, and Anti-HIV Activities of 3'-Halogenated Bis(hydroxymethyl)-cyclopentenyladenines” (ACS Med Chem Lett, 2018).

Assays:
[1] = test system: Human immunodeficiency virus 1; test: Antiviral activity against HIV-1 3B infected in human MT2 cells assessed as inhibition of virus-induced cytopathic effect after 7 days by MTT assay; type: functional, organism-based; conditions: Human immunodeficiency virus 1, 3B, MT2, 168 h
HBV genotype D = test: Antiviral activity against HBV genotype D infected in human HepG2.2.15 cells assessed as reduction in viral DNA level after 7 days by RT-PCR assay; type: functional, organism-based; conditions: Hepatitis B virus, HepG2.2.15, 168 h
[2] = Cytotoxicity against human MT2 cells after 7 days by MTT assay; type: cell-based
[3] = Cytotoxicity against human HepG2.2.15 cells after 7 days by MTT assay; type: cell-based, HepG2 2.2.15
[4] = Selectivity index, ratio of CC50 for cytotoxicity against human HepG2.2.15 cells to EC50 for HBV genotype D infected in human HepG2.2.15 cells; type: toxicity, cell-based; conditions: read-out: Ratio CC50/EC50

EC50 (HBV genotype D) | Structure (SMILES) | EC50 [1] | CC50 at 168 h [2] | CC50 at 168 h [3] | selectivity ratio [4]
0.146 µM | Nc1ncnc2c1ncn2[C@H]1C=C(Cl)[C@H](CO)[C@H]1CO | > 100 µM | > 100 µM |  | 
0.0038 µM | C=C1[C@H](CO)[C@@H](O)C[C@@H]1n1cnc2c(=O)[nH]c(N)nc21 [ENTECAVIR] |  |  | 52.9 µM | 
0.029 µM | Nc1ncnc2c1ncn2[C@H]1C=C(Br)[C@H](CO)[C@H]1CO | > 100 µM | > 100 µM | > 100 µM | 
0.0457 µM | Nc1ncnc2c1ncn2[C@@H]1C=C[C@H](CO)[C@H]1CO | 0.77 µM | 153 µM | > 100 µM | 
0.436 µM | Nc1ncnc2c1ncn2[C@H]1C=C(I)[C@H](CO)[C@H]1CO | > 100 µM | > 100 µM |  | 
0.019 µM | Nc1ncnc2c1ncn2[C@H]1C=C(F)[C@H](CO)[C@H]1CO | > 100 µM | > 100 µM | > 100 µM | 5260
